Measured values published in patent US20080119515A1, “Heterocyclic Kinase Inhibitors: Methods of Use and Synthesis” (priority 2003, published 2008).

Target: T1, ZAP-70 (Homo sapiens, UniProt P43403)
T1 sequence (P43403 1-619): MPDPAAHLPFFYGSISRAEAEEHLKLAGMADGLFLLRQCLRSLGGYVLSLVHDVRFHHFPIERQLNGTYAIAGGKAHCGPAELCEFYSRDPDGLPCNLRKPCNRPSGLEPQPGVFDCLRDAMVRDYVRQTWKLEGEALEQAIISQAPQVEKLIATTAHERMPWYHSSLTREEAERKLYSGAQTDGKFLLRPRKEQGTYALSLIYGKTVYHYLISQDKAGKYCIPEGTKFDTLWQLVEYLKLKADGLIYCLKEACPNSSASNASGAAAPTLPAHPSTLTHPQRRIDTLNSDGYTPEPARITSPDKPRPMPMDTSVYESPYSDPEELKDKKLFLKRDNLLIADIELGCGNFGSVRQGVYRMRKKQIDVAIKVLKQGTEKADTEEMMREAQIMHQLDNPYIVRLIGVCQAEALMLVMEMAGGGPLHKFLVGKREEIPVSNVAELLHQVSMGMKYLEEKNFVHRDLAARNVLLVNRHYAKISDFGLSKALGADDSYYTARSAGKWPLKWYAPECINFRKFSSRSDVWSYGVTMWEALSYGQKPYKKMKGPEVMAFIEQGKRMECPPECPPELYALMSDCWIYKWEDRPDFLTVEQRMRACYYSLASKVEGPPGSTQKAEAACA
Experiment: DELFIA assay (ZAP-70 kinase, phosphorylation of biotinylated poly(glu,tyr))
Format: biochemical
Details: ZAP-70 DELFIA, class symbols; read-out: Activity (IC50 in vitro)
In short: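 3.1 nM ZAP-70 pre-incubated 10 min at room temperature with compound ([…]) and 62.5 nM biotinylated poly(glu,tyr) in 62.5 mM Mops pH 7.0, 12.5 mM MgCl2, 12.5% glycerol, 6.25% DMSO (pre-incubation concentrations); ATP added from 5 mM stock, 30 min reaction, EDTA stop. Phosphorylation read by DELFIA europium anti-phosphotyrosine fluorescence (340/615).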

SMILES	IC50
O=C(NCc1ccc(C(F)(F)F)cc1)c1cc(C(=O)N2CCC[C@H]2CN2CCCC2)c2cc(-c3ccc4c(c3)OCO4)ccc2n1 [Compound 139]	1 to 10 µM
N=C([C@@H]1CCCN1C(=O)c1cc(NCc2ccc(C(F)(F)F)cc2)nc2ccc(-c3ccc4c(c3)OCO4)cc12)N1CCCC1 [Compound 381]	> 10 µM
N#Cc1ccc(-c2ccc3nc(NNCc4ccccc4)cc(C(=O)N4CCC[C@H]4CN4CCCC4)c3c2)cc1 [Compound 249]	> 10 µM
CN(CCc1ccccc1)c1cc(C(=O)N2CCC[C@H]2CN2CCCC2)cc(Cc2ccccc2)n1 [Compound 369]	> 10 µM
N#Cc1ccc(-c2ccc3nc(NCc4csc5ccccc45)cc(C(=O)N4CCC[C@H]4CN4CCCC4)c3c2)cc1 [Compound 231]	> 10 µM
O=C(Nc1ccc2cn[nH]c2c1)c1cc(NCc2ccc(C(F)(F)F)cc2)nc2ccc(-c3ccc4c(c3)OCO4)cc12 [Compound 87]	> 10 µM
CN(C)C[C@@H]1CCCN1C(=O)c1cc(N(C)C)nc2ccc(-c3ccc4c(c3)OCO4)cc12 [Compound 20]	> 10 µM
O=C(c1cc(NCc2ccc(C(F)(F)F)cc2)nc2ccc(-c3ccccc3F)cc12)N1CCC[C@H]1CN1CCCC1 [Compound 308]	1 to 10 µM
O=C(c1cc(CCCCc2ccccc2)nc2ccc(-c3ccc4c(c3)OCO4)cc12)N1CCC[C@H]1CN1CCCC1 [Compound 435]	< 1 µM
CCN(CC)C[C@@H]1CCCN1C(=O)c1cc(NCc2ccccc2)nc2ccc(-c3ccc4c(c3)OCO4)cc12 [Compound 81]	1 to 10 µM
CN(c1ccccn1)c1cc(C(=O)N2CCC[C@H]2CN2CCCC2)c2cc(-c3ccc4c(c3)OCO4)ccc2n1 [Compound 78]	1 to 10 µM
O=C(c1cc(NCc2ccc(C(F)(F)F)cc2)nc2ccc(-c3cccs3)cc12)N1CCC[C@H]1CN1CCCC1 [Compound 293]	1 to 10 µM
O=C(NCc1ccc(C(F)(F)F)cc1)c1cc(NCc2ccc(C(F)(F)F)cc2)nc2ccc(-c3ccc4c(c3)OCO4)cc12 [Compound 111]	> 10 µM
CN1CCC(N(C)c2cc(C(=O)N3CCC[C@H]3CN3CCCC3)c3cc(-c4ccc5c(c4)OCO5)ccc3n2)CC1 [Compound 60]	< 1 µM
O=C(c1cc(NCc2ccccc2)nc2ccc(-c3ccc4c(c3)OCO4)cc12)N1CCC[C@H]1CN1CCCCC1 [Compound 82]	1 to 10 µM
CN(Cc1ccccc1)c1cc(C(=O)N2CCC[C@H]2CN2CCCC2)cc(-c2ccc3c(c2)OCO3)n1 [Compound 276]	> 10 µM
O=C(c1cc(NCc2ccc(C(F)(F)F)cc2)nc2ccc(-c3ccc4c(c3)OCO4)cc12)N1CC2CC2[C@H]1CN1CCCC1 (stereo partly shown) [Compound 145]	1 to 10 µM
N#Cc1ccc(-c2ccc3nc(N4CCC(c5ccc(F)cc5)C4)cc(C(=O)N4CCC[C@H]4CN4CCCC4)c3c2)cc1 (stereo partly shown) [Compound 264]	> 10 µM
O=C(c1cc(NCCc2ccc(Cl)cc2Cl)nc2ccc(-c3ccc4c(c3)OCO4)cc12)N1CCC[C@H]1CN1CCCC1 [Compound 45]	< 1 µM
O=C(Nc1ccc2cn[nH]c2c1)c1cc(NCc2ccccc2)nc2ccc(-c3ccc4c(c3)OCO4)cc12 [Compound 85]	1 to 10 µM

SMILES	IC50
O=C(c1cc(Sc2ccc(OC(F)(F)F)cc2)nc2ccc(-c3ccc4c(c3)OCO4)cc12)N1CCC[C@H]1CN1CCCC1 [Compound 325]	< 1 µM
N#Cc1ccc(-c2ccc3nc(N4CCSC(c5ccccc5)C4)cc(C(=O)N4CCC[C@H]4CN4CCCC4)c3c2)cc1 (stereo partly shown) [Compound 256]	> 10 µM
CC(=O)N1CCN(c2cc(C(=O)N3CCC[C@H]3CN3CCCC3)c3cc(-c4ccc5c(c4)OCO5)ccc3n2)CC1 [Compound 58]	1 to 10 µM
C[C@@H](Nc1cc(C(=O)N2CCC[C@H]2CN2CCCC2)c2cc(-c3ccc(C#N)cc3)ccc2n1)[C@@H](O)c1ccccc1 [Compound 214]	> 10 µM
N#Cc1ccc(-c2ccc3nc(NC4Cc5ccccc5C4)cc(C(=O)N4CCC[C@H]4CN4CCCC4)c3c2)cc1 [Compound 155]	> 10 µM
N#Cc1ccc(-c2ccc3nc(NCc4cccc(OC(F)(F)F)c4)cc(C(=O)N4CCC[C@H]4CN4CCCC4)c3c2)cc1 [Compound 190]	> 10 µM
CC(Nc1cc(C(=O)N2CCC[C@H]2CN2CCCC2)c2cc(-c3ccc(C#N)cc3)ccc2n1)c1ccc(Br)cc1 (stereo partly shown) [Compound 222]	> 10 µM
N#Cc1ccc(-c2ccc3nc(NCCc4cccc(F)c4)cc(C(=O)N4CCC[C@H]4CN4CCCC4)c3c2)cc1 [Compound 194]	> 10 µM
Cc1cc(CNc2cc(C(=O)N3CCC[C@H]3CN3CCCC3)c3cc(-c4ccc(C#N)cc4)ccc3n2)ccc1F [Compound 225]	> 10 µM
O=C(c1cc(Cl)nc2ccc(-c3ccc4c(c3)OCO4)cc12)N1CCC[C@H]1CN1CCCC1 [Compound 1]	1 to 10 µM
N#Cc1ccc(-c2ccc3nc(N[C@@H]4CCc5ccccc54)cc(C(=O)N4CCC[C@H]4CN4CCCC4)c3c2)cc1 [Compound 182]	> 10 µM
Nc1cc(CCc2ccc(C(F)(F)F)cc2)cc2c(C(=O)N3CCC[C@H]3CN3CCCC3)cc(CCc3ccc(C(F)(F)F)cc3)nc12 [Compound 433]	< 1 µM
O=C(c1cc(N[C@@H]2c3ccccc3C[C@@H]2O)nc2ccc(-c3ccc4c(c3)OCO4)cc12)N1CCC[C@H]1CN1CCCC1 [Compound 48]	1 to 10 µM
N#Cc1cncc(-c2ccc3nc(NCc4ccc(C(F)(F)F)cc4)cc(C(=O)N4CCC[C@H]4CN4CCCC4)c3c2)c1 [Compound 339]	> 10 µM
COc1cccc(Nc2cc(C(=O)N3CCC[C@H]3CN3CCCC3)c3cc(-c4ccc5c(c4)OCO5)ccc3n2)c1 [Compound 17]	< 1 µM
O=C(c1cc(Cc2ccc(N3CCC4(CCNC4)CC3)cc2)nc2ccc(-c3ccc4c(c3)OCO4)cc12)N1CCCC1CN1CCCC1 (stereo not shown) [Compound 446]	< 1 µM
Cc1c(NCc2ccc(C(F)(F)F)cc2)nc2ccc(-c3ccc4c(c3)OCO4)cc2c1C(=O)N1CCC[C@H]1CN1CCCC1 [Compound 124]	1 to 10 µM
C[C@H](Nc1cc(C(=O)N2CCC[C@H]2CN2CCCC2)c2cc(-c3ccc(C#N)cc3)ccc2n1)c1ccc(Br)cc1 [Compound 221]	> 10 µM
O=C(c1cc(N2CCC(O)CC2)nc2ccc(-c3ccc4c(c3)OCO4)cc12)N1CCC[C@H]1CN1CCCC1 [Compound 90]	1 to 10 µM
O=C(c1cc(/C=C/c2ccc(Cl)cc2)nc2ccc(-c3ccc4c(c3)OCO4)cc12)N1CCC[C@H]1CN1CCCC1 [Compound 132]	1 to 10 µM

SMILES	IC50
O=C(c1cc(NCc2ccccc2)nc2ccc(-c3ccc4c(c3)OCO4)cc12)N1CCC[C@H]1CN1CCOCC1 [Compound 83]	1 to 10 µM
NC(=O)c1cc(C(=O)N2CCC[C@H]2CN2CCCC2)c2cc(-c3ccc4c(c3)OCO4)ccc2n1 [Compound 138]	> 10 µM
O=C(c1cc(NCc2ccc(C(F)(F)F)cc2)nc2ccc(-c3cncnc3)cc12)N1CCC[C@H]1CN1CCCC1 [Compound 332]	> 10 µM
Nc1cc(C(=O)N2CCC[C@H]2CN2CCCC2)c2cc(-c3ccc4c(c3)OCO4)ccc2n1 [Compound 11]	1 to 10 µM
CN(Cc1ccccc1)c1cc(C(=O)N2CCC[C@H]2CN2CCCC2)c2cc(-c3ccc4c(c3)OCO4)ccc2n1 [Compound 12]	< 1 µM
N#Cc1ccc(-c2ccc3nc(NCCc4ccc(Cl)cc4)cc(C(=O)N4CCC[C@H]4CN4CCCC4)c3c2)cc1 [Compound 174]	> 10 µM
COC[C@H](Cc1ccccc1)Nc1cc(C(=O)N2CCC[C@H]2CN2CCCC2)c2cc(-c3ccc(C#N)cc3)ccc2n1 [Compound 185]	> 10 µM
N#Cc1ccc(-c2ccc3nc(NCc4cc(C(F)(F)F)ccc4F)cc(C(=O)N4CCC[C@H]4CN4CCCC4)c3c2)cc1 [Compound 238]	> 10 µM
Nc1ccc(CCc2cc(C(=O)N3CCC[C@H]3CN3CCCC3)c3cc(-c4ccc5c(c4)OCO5)ccc3n2)cc1 [Compound 394]	> 10 µM
O=C(c1cc(NC2Cc3ccccc3C2)nc2ccc(-c3ccc4c(c3)OCO4)cc12)N1CCC[C@H]1CN1CCCC1 [Compound 29]	1 to 10 µM
O=C(c1cc(NCc2ccc(C(F)(F)F)cc2)nc2ccc(-c3ccc(SC(F)(F)F)cc3)cc12)N1CCC[C@H]1CN1CCCC1 [Compound 350]	> 10 µM
O=C(c1cc(NCc2ccc(C(F)(F)F)cc2)nc2ccc(-c3cccc(CO)c3)cc12)N1CCC[C@H]1CN1CCCC1 [Compound 416]	> 10 µM
O=C(c1cc(Cc2ccc(N3CCN(Cc4ccncc4)CC3)cc2)nc2ccc(-c3ccc4c(c3)OCO4)cc12)N1CCCC1CN1CCCC1 (stereo not shown) [Compound 443]	< 1 µM
O=C(c1ccnc2ccc(-c3ccc4c(c3)OCO4)cc12)N1CCC[C@H]1CN1CCCC1 [Compound 399]	> 10 µM
O=C(c1cc(SCc2ccc(Cl)cc2)nc2ccc(-c3ccc4c(c3)OCO4)cc12)N1CCC[C@H]1CN1CCCC1 [Compound 326]	< 1 µM
O=C(c1cc(NCc2cccnc2)nc2ccc(-c3ccc4c(c3)OCO4)cc12)N1CCC[C@H]1CN1CCCC1 [Compound 34]	1 to 10 µM
N#Cc1ccc(-c2ccc3nc(NCCc4ccccc4F)cc(C(=O)N4CCC[C@H]4CN4CCCC4)c3c2)cc1 [Compound 191]	> 10 µM
CN(C)c1cc(C(=O)N2CCC[C@H]2CN2CCCC2)c2cc(-c3ccc4c(c3)OCO4)ccc2n1 [Compound 59]	1 to 10 µM
